Five compounds from paper PMC4756352, “Atypical natural killer T-cell receptor recognition of CD1d–lipid antigens” (Nature Communications, 2016) can be followed below.

In assay [1] the target is T1, human CD1d (Homo sapiens, UniProt P15813).
T1 construct: soluble CD1d with C-terminal BirA biotin ligase tag and B2M, baculovirus/High Five insect cells, IMAC and gel filtration; biotinylated; with Beta-2-microglobulin
Put plainly: SPR, lipid-loaded CD1d immobilised, TCR injected. As to conditions: lipid loaded at 3-6 fold molar excess overnight; binding seen through TCR recognition; HBS-T pH 7.4, 25 °C.

Assay [2] addresses T1, human CD1d. The assay can be described thus: lipid-loaded CD1d tetramer staining of TCR-transduced Jurkat cells. As to conditions: binding seen through TCR recognition (9B1, 9B2 lines). Format: cell-based.

T1 sequence (P15813 20-295 limits assumed): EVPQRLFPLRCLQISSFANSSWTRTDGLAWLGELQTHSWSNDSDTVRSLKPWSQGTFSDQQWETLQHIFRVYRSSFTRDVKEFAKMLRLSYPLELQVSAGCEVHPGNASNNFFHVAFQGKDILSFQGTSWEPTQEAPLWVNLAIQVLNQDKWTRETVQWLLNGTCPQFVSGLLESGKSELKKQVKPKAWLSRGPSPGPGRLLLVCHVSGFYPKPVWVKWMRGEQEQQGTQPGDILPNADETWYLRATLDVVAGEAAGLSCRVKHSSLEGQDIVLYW
T1 sequence (P61769 21-119 partner): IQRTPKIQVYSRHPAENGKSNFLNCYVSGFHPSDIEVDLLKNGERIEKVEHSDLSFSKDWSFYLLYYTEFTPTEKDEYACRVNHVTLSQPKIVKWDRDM

With `CCCCCCCCCCCCCCCCCCCCCCCCCC(=O)N[C@@H](CO[C@H]1O[C@H](CO)C[C@H](O)[C@H]1O)[C@H](O)CCCCCCCCCCCCCCC`, the “SPR, lipid-loaded CD1d immobilised, TCR injected” value (“SPR … TCR injected” below) at human CD1d [1] is on record as “no negative impact of this analogue on NKT15 or 9B2 TCR binding”.
Take `CCCCCCCCCCCCCCCCCCCCCCCCCC(=O)N[C@@H](CO[C@H]1O[C@H](CO)[C@H](O)C[C@H]1O)[C@H](O)CCCCCCCCCCCCCCC` [3′-deoxy-α-GalCer]: the “SPR … TCR injected” value at human CD1d [1] was “affinity of the 9C1 and 9B2 TCRs towards CD1d-3′-deoxy-α-GalCer”.
For the compound `CCCCCCCCCCCCCCCCCCCCCCCCCC(=O)N[C@@H](CO[C@H]1O[C@H](CO)[C@@H](O)[C@H](O)[C@H]1O)[C@H](O)[C@H](O)CCCCCCCCCCCCCC` [α-GlcCer (C26:0)], the “SPR … TCR injected” value at human CD1d [1] was “yet was well-tolerated by NKT15 TCR”.
`CCCCCCCCCCCCC/C=C/[C@@H](O)[C@H](CO[C@@H]1O[C@H](CO)[C@H](O)[C@H](O)[C@H]1O)NC(=O)CCCCCCCCCCC` [β-GalCer (C12)]: the “lipid-loaded CD1d tetramer staining of TCR-transduced Jurkat cells” value at human CD1d [2] is “These 9B1 and 9B2 TCRs also reacted to a lesser extent with β-GalCer”.
On the same count and under the same terms, the same measure for `CCCCCCCC/C=C\CCCCCCCCCCCCCC(=O)N[C@@H](CO[C@@H]1O[C@H](CO)[C@@H](O)[C@H](O)[C@H]1O)[C@H](O)/C=C/CCCCCCCCCCCCC` [β-GlcCer (C24:1)]: “we detected clear reactivity of Jurkat.9B1 and Jurkat.9B2 cell lines to β-GlcCer”.
